Experimental data as given in ChEMBL document CHEMBL1129835, “Selective cytotoxicity of certain 9-substituted ellipticines for leukemia cells in a variety of leukemia cell cultures” (1997).

Experiments:
Type in all cases: functional
Conditions in all cases: Homo sapiens
IGROV-1 = experiment: The compound was evaluated for cytotoxicity against IGROV1 ovarian cancer cell line
MDA-N = experiment: The compound was evaluated for cytotoxicity against MDA-N breast cancer cell line
U-251 = experiment: The compound was evaluated for cytotoxicity against U251 CNS cancer cell line
PC-3 = experiment: The compound was evaluated for cytotoxicity against PC-3 prostate cancer cell line
NCI-H322M = experiment: The compound was evaluated for cytotoxicity against NCI-H322M non-small cell lung cancer cell line
HCT-116 = experiment: The compound was evaluated for cytotoxicity against HCT116 colon cancer cell line
LOX IMVI = experiment: The compound was evaluated for cytotoxicity against LOX-IMVI melanoma cell line
CAKI-1 = experiment: The compound was evaluated for cytotoxicity against CAKI-1 renal cancer cell line
MOLT-4 = experiment: The compound was evaluated for cytotoxicity against MOLT-4 leukemia cell line

Compound | GI50 (IGROV-1) [nM] | GI50 (MDA-N) [nM] | GI50 (U-251) [nM] | GI50 (PC-3) [nM] | GI50 (NCI-H322M) [nM] | GI50 (HCT-116) [nM] | GI50 (LOX IMVI) [nM] | GI50 (CAKI-1) [nM] | GI50 (MOLT-4) [nM]
Cc1c2ccncc2c(C)c2c1[nH]c1ccc(CNCCN(C)C)cc12 | 150 | 280 | 280 | 380 | 250 | 170 | 160 | 260 | 100
CCN(CC)CCNCc1ccc2[nH]c3c(C)c4ccncc4c(C)c3c2c1 | 40 | 110 | 180 | 210 | 60 | 50 | 120 | 160 | 10
